Data set [1] is described as follows: Haemolytic activity in human RBC assessed as haemolysis at 50 uM for 48 hrs by haemolysis assay. The data set is classed as toxicity, cell-based, Erythrocyte. To be noted: human red blood cells, read-out: Activity.
Data set [2] deals with Plasmodium falciparum. Briefly: Antimalarial activity against chloroquine-sensitive Plasmodium falciparum NF54 assessed as inhibition of parasite growth measured after 24 hrs by parasite lactate dehydrogenase (pLDH) assay. Type of data set: functional, organism-based. To be noted: NF54, 24 h.
The nature of data set [3]: Selectivity index, ratio of IC50 for cytotoxicity against HEK293 cells to IC50 for antimalarial activity against chloroquine sensitive Plasmodium falciparum NF54 assessed as inhibition of parasite growth measured after 24 hrs by parasite lactate dehydrogenase (pLDH) assay. Type of data set: toxicity, cell-based. To be noted: human, HEK293 cells versus Plasmodium falciparum NF54, read-out: Ratio IC50.

Data set [4] in a line: Cytotoxicity against HEK293 cells assessed as cell viability incubated for 48 hrs by MTT assay. The data set is classed as toxicity, cell-based. To be noted: human.
Data set [5] in a line: Binding affinity to 6xHis tagged recombinant Plasmodium falciparum Hsp70-1 extracted from Escherichia coli assessed as dissociation rate constant (Kd) incubated for 10 mins by SPR analysis.
Data set [6] relates to Plasmodium falciparum. Nature of the data set: Binding affinity to 6xHis tagged recombinant Plasmodium falciparum Hsp70-1 extracted from Escherichia coli assessed as association rate constant (Ka) incubated for 3 mins by SPR analysis.
In data set [7] the test system is Plasmodium falciparum. Briefly: Antimalarial activity against chloroquine-sensitive Plasmodium falciparum NF54 assessed as reduction of second generation rings at IC50 concentration incubated for 48 hrs by microscopic analysis. The data set is classed as functional, organism-based.
A short description of data set [8]: Binding affinity to 6xHis tagged recombinant Plasmodium falciparum Hsp70-1 extracted from Escherichia coli assessed as dissociation constant (KD) incubated for 10 mins by SPR analysis.
The nature of data set [9]: Binding affinity to 6xHis tagged recombinant Plasmodium falciparum Hsp70-z extracted from Escherichia coli assessed as dissociation constant (KD) incubated for 10 mins by SPR analysis.
The nature of data set [10]: Binding affinity to 6xHis tagged recombinant Plasmodium falciparum Hsp70-z extracted from Escherichia coli assessed as dissociation rate constant (Kd) incubated for 10 mins by SPR analysis.
The test system of data set [11] is Plasmodium falciparum. Briefly: Binding affinity to 6xHis tagged recombinant Plasmodium falciparum Hsp70-1 extracted from Escherichia coli by SPR analysis.
The subject of data set [12] is Plasmodium falciparum. Briefly: Binding affinity to 6xHis tagged recombinant Plasmodium falciparum Hsp70-z extracted from Escherichia coli by SPR analysis.
In data set [13] the test system is Plasmodium falciparum. Nature of the data set: Binding affinity to 6xHis tagged recombinant Plasmodium falciparum Hsp70-z extracted from Escherichia coli assessed as association rate constant (Ka) incubated for 3 mins by SPR analysis.
Data set [14] has as its system Plasmodium falciparum. Nature of the data set: Antimalarial activity against chloroquine-sensitive Plasmodium falciparum NF54 assessed as reduction of schizonts at IC50 concentration incubated for 48 hrs by microscopic analysis. Type of data set: functional, organism-based.
The test system of data set [15] is Plasmodium falciparum. Nature of the data set: Antimalarial activity against chloroquine-sensitive Plasmodium falciparum W2 assessed as growth inhibition by isotopic micro drug susceptibility assay. The data set is classed as functional, organism-based.
The subject of data set [16] is Plasmodium falciparum. Nature of the data set: Antimalarial activity against […] Plasmodium falciparum 3D7 assessed as growth inhibition by isotopic micro drug susceptibility assay. The data set is classed as functional, organism-based.
The next data set deals with Plasmodium berghei. Briefly: In vivo antiplasmodial activity against Plasmodium berghei assessed as growth inhibition at 100 mg/kg measured after 21 days relative to control. Type of data set: functional. Also on record: scale not given: the % may be the effect or the level left. The conditions noted are these: time 21 day.
Data set [17] concerns Plasmodium falciparum. Nature of the data set: Antimalarial activity against chloroquine-resistant intra-erythrocytic stage Plasmodium falciparum. Type of data set: functional, organism-based.

pIC50, pKd: −log10 of the molar value. Calls of active or inactive are those of the source. No cut-off for these calls is given here.

For `COc1ccc(-c2cc(-c3ccc(C)cc3)nc(N3CCNCC3)n2)cc1`, in [1], the hemolysis at 48 h, 50 µM came to 0.01%. The pIC50 in the data set on Plasmodium falciparum [2] was 5.30.

Take `O=C(/C=C/c1ccccc1)N1CCN(c2nc(-c3cccnc3)cc(-c3ccoc3)n2)CC1`: the hemolysis at 48 h, 50 µM in data set [1] came out at 0.01%. Also, the pIC50 with Plasmodium falciparum [2] is 5.30.

With `COc1ccc(-c2cc(-c3ccc(OC)cc3)nc(N3CCN(C(=O)/C=C/c4ccc[nH]4)CC3)n2)cc1`, the hemolysis at 48 h, 50 µM in [1] was found to be 0.01%. The pIC50 in the data set with Plasmodium falciparum [2] was 5.13. In addition, in data set [3], the selectivity ratio at 24 h was found to be 0.5. Also, the IC50 at 48 h in data set [4] worked out at 3690 nM.

For `COc1ccc(-c2cc(-c3ccc(OC)cc3)nc(N3CCN(C(=O)/C=C/c4ccc(OC)c(OC)c4)CC3)n2)cc1`, in data set [1], the hemolysis at 48 h, 50 µM was determined as 0.01%. Moreover, the pIC50 in the data set with Plasmodium falciparum [2] was 5.30.

Consider `CCc1ccc(-c2cc(-c3ccc(OC)c(OC)c3)nc(N3CCN(C(=O)/C=C/c4ccccc4)CC3)n2)cc1`, for which the Kd is on record as 7.72 10^-2(1/s) in data set [5] and 8.97 10^-2(1/s) in [10]. Besides, the hemolysis at 48 h, 50 µM in [1] was 0.01%. Besides, the Ka with Plasmodium falciparum [6] was 7.97 10^6/M.s; with Plasmodium falciparum [13] it was 8.28 10^6/M.s. The outcome in the data set on Plasmodium falciparum [7] and with Plasmodium falciparum [14] was Active. Moreover, the pKd in data set [8] was 8.01; in data set [9], 7.97. The pIC50 in the data set on Plasmodium falciparum [2] was 6.68. The Activity entry in the data set on Plasmodium falciparum [11] and in the data set on Plasmodium falciparum [12] was “Dose-dependent-effect” each time. The selectivity ratio at 24 h in data set [3] is 16.8. In addition, in data set [4], the IC50 at 48 h is 3550 nM.

With `COc1ccc(/C=C/C(=O)N2CCN(c3nc(-c4ccc(OC)cc4)cc(-c4ccc(OC)cc4)n3)CC2)cc1`, the hemolysis at 48 h, 50 µM in [1] worked out at 0.01%. The pIC50 in the data set with Plasmodium falciparum [2] was 5.30.

Consider `COc1ccc(-c2cc(-c3ccc(C)cc3)nc(N3CCN(C(=O)/C=C/c4ccc(OC)c(OC)c4)CC3)n2)cc1`, for which the hemolysis at 48 h, 50 µM in data set [1] turned out to be 0.01%. Also, the negative logarithm of the IC50 (pIC50) with Plasmodium falciparum [2] was 6.22. Besides, the selectivity ratio at 24 h in [3] worked out at 1.54. Besides, the IC50 at 48 h in [4] came out at 930 nM.

In the case of `CC[C@@]1(O)C(=O)OCc2c1cc1n(c2=O)Cc2cc3ccccc3nc2-1` [CAMPTOTHECIN], in data set [4], the IC50 at 48 h was determined as 200 nM.

As for `COc1ccc(-c2cc(-c3ccc(C)cc3)nc(N3CCN(C(=O)/C=C/c4ccc(C)cc4)CC3)n2)cc1`, in data set [1], the hemolysis at 48 h, 50 µM was 0.01%. Also, the pIC50 in the data set with Plasmodium falciparum [2] was 5.63.

As to `Cc1ccc(/C=C/C(=O)N2CCN(c3nc(-c4ccc(Cl)cc4)cc(-c4cccnc4)n3)CC2)cc1`, the hemolysis at 48 h, 50 µM in [1] was 0.01%. Further, the pIC50 in the data set with Plasmodium falciparum [2] is 5.44.

`CO[C@H]1/C=C/O[C@@]2(C)Oc3c(C)c(O)c4c(O)c(c(/C=N/N5CCN(C)CC5)c(O)c4c3C2=O)NC(=O)/C(C)=C\C=C\[C@H](C)[C@H](O)[C@@H](C)[C@@H](O)[C@@H](C)[C@H](OC(C)=O)[C@@H]1C` [RIFAMPIN]: the pIC50 in the data set with Plasmodium falciparum [15] was 5.89; in the data set on Plasmodium falciparum [16], 5.49.

With `COc1ccc(-c2cc(-c3ccc(OC)cc3)nc(N3CCN(C(=O)/C=C/c4ccc(Cl)cc4)CC3)n2)cc1`, the hemolysis at 48 h, 50 µM in data set [1] was found to be 0.01%. Also, the pIC50 with Plasmodium falciparum [2] was 5.57.

Take `CCc1ccc(-c2cc(-c3ccc(OC)c(OC)c3)nc(N3CCN(C(=O)/C=C/c4ccc[nH]4)CC3)n2)cc1`: in [1], the hemolysis at 48 h, 50 µM was 0.01%. For the same compound, the negative logarithm of the IC50 (pIC50) in the data set on Plasmodium falciparum [2] is 6.14.

Turning to `C=C[C@H]1CN2CC[C@H]1C[C@H]2[C@H](O)c1ccnc2ccc(OC)cc12` [QUININE], the hemolysis at 48 h, 50 µM in data set [1] is 0.01%. In addition, in the data set with Plasmodium falciparum [2], the pIC50 is 6.96. In addition, the selectivity ratio at 24 h in data set [3] amounted to 1240.

In the case of `COc1ccc(-c2cc(-c3ccc(C)cc3)nc(N3CCN(C(=O)/C=C/c4ccc(Cl)cc4)CC3)n2)cc1`, the hemolysis at 48 h, 50 µM in [1] came out at 0.01%. Further, the pIC50 in the data set with Plasmodium falciparum [2] is 5.76.

Regarding `COc1ccc(-c2cc(-c3ccc(Cl)cc3)nc(N3CCN(C(=O)/C=C/c4ccccc4)CC3)n2)cc1`, the hemolysis at 48 h, 50 µM in data set [1] came out at 0.01%. The pIC50 in the data set with Plasmodium falciparum [2] is 5.22.

Consider `CCc1ccc(-c2cc(-c3ccc(OC)c(OC)c3)nc(N3CCN(C(=O)/C=C/c4ccc(Cl)cc4)CC3)n2)cc1`, for which the hemolysis at 48 h, 50 µM in data set [1] turned out to be 0.01%. Further, in the data set with Plasmodium falciparum [2], the pIC50 is 6.70. For the same compound, in data set [3], the selectivity ratio at 24 h was 4.34. For the same compound, in data set [4], the IC50 at 48 h stood at 870 nM.

Consider `CCN(CC)CCCC(C)Nc1ccnc2cc(Cl)ccc12` (configuration not stated) [CHLOROQUINE], for which, in data set [1], the hemolysis at 48 h, 50 µM stood at 0.01%.

Regarding `COc1cc(/C=C/C(=O)CC(=O)/C=C/c2ccc(O)c(OC)c2)ccc1O` [CURCUMIN], in the data set on Plasmodium berghei, the Activity turned out to be 100%. The pIC50 with Plasmodium falciparum [17] was around 5.30.

`COc1ccc(-c2cc(-c3ccc(OC)cc3)nc(N3CCN(C(=O)/C=C/c4ccccc4)CC3)n2)cc1`: the hemolysis at 48 h, 50 µM in [1] stood at 0.01%. Also, in the data set on Plasmodium falciparum [2], the pIC50 is 5.39.

In the case of `COc1ccc(-c2cc(-c3ccc(C)cc3)nc(N3CCN(C(=O)/C=C/c4ccccc4)CC3)n2)cc1`, in [1], the hemolysis at 48 h, 50 µM came to 0.01%. The pIC50 in the data set on Plasmodium falciparum [2] is 5.57.

For the compound `CCc1ccc(-c2cc(-c3ccc(OC)c(OC)c3)nc(N3CCN(C(=O)/C=C/c4ccc(C)cc4)CC3)n2)cc1`, the hemolysis at 48 h, 50 µM in [1] was found to be 0.01%. Also, the pIC50 in the data set with Plasmodium falciparum [2] was 5.81.

Regarding `COc1ccc(-c2cc(-c3ccc(OC)cc3)nc(N3CCN(C(=O)/C=C/c4ccc(C)cc4)CC3)n2)cc1`, the hemolysis at 48 h, 50 µM in [1] worked out at 0.01%. For the same compound, the pIC50 in the data set with Plasmodium falciparum [2] is 5.45.

For `CCc1ccc(-c2cc(-c3ccc(OC)c(OC)c3)nc(N3CCN(C(=O)/C=C/c4ccc(OC)cc4)CC3)n2)cc1`, the Kd is 9.29 10^-2(1/s) in data set [5] and 9.79 10^-2(1/s) in [10]. In addition, in data set [1], the hemolysis at 48 h, 50 µM stood at 0.01%. Besides, the Ka in the data set on Plasmodium falciparum [6] was 5.92 10^6/M.s; in the data set with Plasmodium falciparum [13] it was 6.24 10^6/M.s. Besides, the result with Plasmodium falciparum [7] and with Plasmodium falciparum [14] was Active. Further, the figures for the pKd in data set [8] and in [9] were 8.80 and 7.80, respectively. In the data set with Plasmodium falciparum [2], the pIC50 is 6.74. The Activity result in the data set on Plasmodium falciparum [11] and with Plasmodium falciparum [12] was “Dose-dependent-effect” in each case. The selectivity ratio at 24 h in data set [3] came out at 18.6. Moreover, the IC50 at 48 h in data set [4] stood at 3360 nM.

The values above are taken from ChEMBL document CHEMBL6087422, “A promising class of antiprotozoal agents, design and synthesis of novel Pyrimidine-Cinnamoyl hybrids” (Eur J Med Chem, 2025).
